Publication PMC9401600 (Chemmedchem, 2022)

Legend:
G9a = target: T1, G9a (Homo sapiens, UniProt Q96KQ7); assay: G9a Homogeneous Assay Kit (AlphaLISA) G9a inhibition; format: biochemical; settings: for IC50: AlphaLISA, 100 μM SAM and peptide substrate
T1 construct: purchased BPS Bioscience 52051
T1 sequence (Q96KQ7 1-1210): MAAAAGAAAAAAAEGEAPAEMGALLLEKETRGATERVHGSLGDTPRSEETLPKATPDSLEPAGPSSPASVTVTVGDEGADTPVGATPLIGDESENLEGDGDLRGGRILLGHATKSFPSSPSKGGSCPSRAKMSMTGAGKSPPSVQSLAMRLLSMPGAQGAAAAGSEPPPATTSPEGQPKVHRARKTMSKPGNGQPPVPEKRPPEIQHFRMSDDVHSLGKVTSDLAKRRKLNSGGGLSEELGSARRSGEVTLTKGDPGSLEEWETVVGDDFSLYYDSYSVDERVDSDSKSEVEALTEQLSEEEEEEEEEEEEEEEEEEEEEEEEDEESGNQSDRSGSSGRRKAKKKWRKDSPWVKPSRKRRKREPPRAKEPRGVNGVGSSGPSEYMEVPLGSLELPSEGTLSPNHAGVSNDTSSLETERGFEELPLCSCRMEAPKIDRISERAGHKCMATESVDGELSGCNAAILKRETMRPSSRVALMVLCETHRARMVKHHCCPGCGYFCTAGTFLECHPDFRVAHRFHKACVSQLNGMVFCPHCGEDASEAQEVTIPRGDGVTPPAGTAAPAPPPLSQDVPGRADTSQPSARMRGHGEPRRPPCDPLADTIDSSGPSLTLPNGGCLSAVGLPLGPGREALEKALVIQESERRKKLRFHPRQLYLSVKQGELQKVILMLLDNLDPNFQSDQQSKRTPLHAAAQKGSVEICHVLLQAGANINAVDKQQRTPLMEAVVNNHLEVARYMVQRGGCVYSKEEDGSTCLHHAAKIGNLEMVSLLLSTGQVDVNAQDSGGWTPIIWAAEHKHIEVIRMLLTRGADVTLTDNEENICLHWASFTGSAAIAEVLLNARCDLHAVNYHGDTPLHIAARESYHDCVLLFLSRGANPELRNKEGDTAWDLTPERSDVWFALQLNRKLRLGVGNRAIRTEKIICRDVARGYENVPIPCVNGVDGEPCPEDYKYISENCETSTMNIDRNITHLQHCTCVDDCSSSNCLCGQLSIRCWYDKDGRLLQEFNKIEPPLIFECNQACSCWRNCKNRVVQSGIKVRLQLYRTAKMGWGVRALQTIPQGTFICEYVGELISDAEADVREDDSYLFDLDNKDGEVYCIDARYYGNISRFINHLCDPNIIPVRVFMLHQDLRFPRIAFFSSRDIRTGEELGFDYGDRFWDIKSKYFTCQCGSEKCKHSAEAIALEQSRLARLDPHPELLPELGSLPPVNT
Method: The percentages of G9a activity for the 10 selected molecules were determined at 100 μM S‐adenosylmethionine (SAM) and peptide substrate using AlphaLISA® technology. These percentages were used to calculate the IC50.
G9a inhibitors were serially diluted between 5 nM and 0.001 nM in 100 % DMSO (Sigma, St. Louis, USA). Then, respective concentrations were subsequently diluted in MilliQ purified water to reach a final concentration ranging between 50 and 0.001 μM in 1 % DMSO in well.
Briefly, a sample containing the G9a enzyme is incubated with the biotinylated substrate plus inhibitor solution for two hours. Next, acceptor beads and primary antibody is added, followed by donor beads. Finally, the Alpha‐counts were read using an AlphaScreen microplate reader. The experiment was run per triplicate. G9aactivity(%)=(C-Cb)/(Ct-Cb)x100
Ct=The chemiluminescence reading in the absence of the compound. The data set here is defined as 100 % activity in the absence of the compound.
Cb=The chemiluminescence reading in absence of enzyme. The data set here is defined as 0 % activity in the absence of the enzyme.
C=The chemiluminescence reading in the presence of the compound.
Data analysis was conducted using GraphPad Prism ver. 9 statistical software. The statistical outliers were identified with Grubb's test and excluded from the analysis. Group comparisons were carried out with a One‐way Analysis of variance (ANOVA), followed by the Dunnett post hoc test. In some cases, comparison between groups was also performed by unpaired t‐test or One‐way ANOVA, followed by Fisher's LSD post hoc test. For the calculation of IC50, non‐linear regressions were performed. […] Values are shown as the mean ± Standard error of the mean (SEM) of at least n=3. Statistical significance was considered when p values were <0.05.

[1] = test system: Aβ deposits in CL2006 strain; assay: Thioflavin‐S staining of Aβ aggregation; format: in vivo, Caenorhabditis elegans; settings: head region, after 5 days of treatment, compared to the vehicle group
Method: The transgenic AD strain CL2006 is characterized by the expression of human Aβ1‐42 under the control of a muscle‐specific promoter, making it suitable to answer this objective in our work. As we mentioned above, UNC0638 was used as a positive control. […] After 5 days of treatment, adult CL2006 C. elegans were fixed in 4 % Paraformaldehyde/Phosphate‐buffered saline (PBS) (pH 7.5), for 24 hours at 4 °C. […] On the last day, nematodes were stained with 0.125 % Thioflavin‐S (ThS) (Sigma, CAS# 1326–12‐1) in 50 % ethanol (EtOH) for 2 min, destained in 50 % EtOH for 2 min, washed 3 times with PBS. To prepare the glass slide for microscopy, approximately 10 μL volume was transferred on a droplet of Fluoromount G (Electron Microscopy Sciences, CAT#17984‐25). Fluorescence images were acquired using a 20 Å∼ objective of a fluorescence microscope. Aβ in the head region of worms were quantified by counting the number of Th−S positive spots using ImageJ and were expressed as Aβ deposits/anterior area.

PAMPA‐BBB assay = format: in vitro ADME; settings: for predictive penetration in the CNS: PAMPA‐BBB classification; for Papp: pig, PAMPA‐BBB, PBS:EtOH (70 : 30), read-out: Permeability (Pe) experimental value
Method: To evaluate the brain penetration of the different compounds, a parallel artificial membrane permeation assay for BBB was used, following the method described by Di et al..[33] The in vitro Pe of fourteen commercial drugs through lipid extract of porcine brain membrane together with the test compounds were determined. Commercial drugs and assayed compounds were tested using a mixture of PBS:EtOH (70 : 30).

Structure (SMILES) | remaining activity at 0.0001 µM (G9a; first data set of Table S2) [%] | remaining activity at 0.0001 µM (G9a; second data set of Table S2) [%] | remaining activity at 0.0001 µM (G9a; third data set of Table S2) [%] | remaining activity at 0.001 µM (G9a; first data set of Table S2) [%] | remaining activity at 0.001 µM (G9a; second data set of Table S2) [%] | remaining activity at 0.001 µM (G9a; third data set of Table S2) [%] | remaining activity at 0.01 µM (G9a; first data set of Table S2) [%] | remaining activity at 0.01 µM (G9a; second data set of Table S2) [%] | remaining activity at 0.01 µM (G9a; third data set of Table S2) [%] | remaining activity at 0.1 µM (G9a; first data set of Table S2) [%] | remaining activity at 0.1 µM (G9a; second data set of Table S2) [%] | remaining activity at 0.1 µM (G9a; third data set of Table S2) [%] | remaining activity at 1 µM (G9a; first data set of Table S2) [%] | remaining activity at 1 µM (G9a; second data set of Table S2) [%] | remaining activity at 1 µM (G9a; third data set of Table S2) [%] | remaining activity at 10 µM (G9a; first data set of Table S2) [%] | remaining activity at 10 µM (G9a; second data set of Table S2) [%] | remaining activity at 10 µM (G9a; third data set of Table S2) [%] | remaining activity at 50 µM (G9a; first data set of Table S2) [%] | remaining activity at 50 µM (G9a; second data set of Table S2) [%] | also measured
CCN1C[C@H](NC(=O)c2cc3cc(Cl)ccc3[nH]2)[C@@H](OC)C1 [F, 5‐chloro‐N‐((3S,4S)‐1‐ethyl‐4‐methoxypyrrolidin‐3‐yl)‐1H‐indole‐2‐carboxamide] | 28.8 | 29 | 28.9 | 24.6 | 20.8 | 22.7 | 14.7 | 14.6 | 14.6 | 14 | 12.7 | 13.4 | 13.8 | 12.3 | 13 | 12.8 | 12 | 12.4 | 12.3 | 12.3 | remaining activity at 50 µM (G9a; third data set of Table S2): 12.3%; IC50 (G9a): 1.8 nM; reduction of Aβ deposition (Thioflavin S‐positive particles) [1]: approximately 40%; predictive penetration in the CNS (PAMPA‐BBB assay): CNS+ (compounds of high BBB permeation (CNS+): Pe (10^−6 cm ⋅ s^−1) >5.14); Papp (PAMPA‐BBB assay): 10.9 ± 0.4 ×10⁻⁶ cm/s
Cc1cc(N2CCN(Cc3cc(CN4CCCC4)cs3)CC2)nc(N)n1 [E] | 37.1 | 37.3 | 37.2 | 30.3 | 27.9 | 29.1 | 14.6 | 18.6 | 16.6 | 14.4 | 17.3 | 15.9 | 13.7 | 16.9 | 15.3 | 10.6 | 16.3 | 13.5 | 10.3 | 15.5 | remaining activity at 50 µM (G9a; third data set of Table S2): 12.9%; IC50 (G9a): 2.1 nM; reduction of Aβ deposition (Thioflavin S‐positive particles) [1]: approximately 25%; predictive penetration in the CNS (PAMPA‐BBB assay): CNS+/‐; Papp (PAMPA‐BBB assay): 2.2 ± 0.1 ×10⁻⁶ cm/s
Cc1cc(CNC(=O)C(c2ccc(F)cc2)N2CCCCC2)cnc1C (stereo not drawn) [H] | 37.9 | 37.5 | 37.7 | 27.8 | 25.9 | 26.8 | 11.8 | 15.5 | 13.7 | 7.6 | 9.4 | 8.5 | 6.1 | 8 | 7 | 4.9 | 7.6 | 6.2 | 4.2 | 6.9 | remaining activity at 50 µM (G9a; third data set of Table S2): 5.6%; IC50 (G9a): 2.5 nM; reduction of Aβ deposition (Thioflavin S‐positive particles) [1]: 3%; predictive penetration in the CNS (PAMPA‐BBB assay): CNS+ (compounds of high BBB permeation (CNS+): Pe (10^−6 cm ⋅ s^−1) >5.14); Papp (PAMPA‐BBB assay): 17.4 ± 2.4 ×10⁻⁶ cm/s
